Source: patent publication US20130102624A1 (priority 2011, published 2013)

Assays:
[1] = urinary excretion of thiamine metabolites TMA and PMA and TMA/PMA ratio (LC-MS/MS of urine)
[2] = in vivo; cited from earlier work

SMILES | Urinary excretion rate at lowest point during fasting ([1]; human) [nmol/h] | TMA/PMA ratio relative to its typical fasting value (transient reduction) ([1]; consumption of thiamine after a period of induced deficiency) | Ratio of TMA to PMA (TMA/PMA) in urine ([1]; human, following consumption of thiamine (100 mg) after fast and sucrose) | Oral bioavailability [2]
Cc1ncc(CO)c(N)n1 [PMA] | 0.07 | – | – | –
Cc1ncsc1CCO [TMA] | 0.06 | – | – | –
Cc1ncc(C[n+]2csc(CCO)c2C)c(N)n1 [thiamine] | – | less than 20% | 0.12 | poor
